Assays:
[1] = test system: HeLa cells; test: EGFR degradation assay; type: cell-based; conditions: HeLa cells treated with EGF
Description: (§1) Since the increase of lysosomal pH normally compromises the lysosomal activity, it was assessed whether vacuolin-1 affects the general lysosomal functions to inhibit autophagy maturation. […] Next, an epidermal growth factor receptor (EGFR) degradation assay was performed to examine whether vacuolin-1 affects the general endosomal-lysosomal pathway. In this assay, HeLa cells were treated with EGF in the presence or absence of vacuolin-1. After EGF binds to its receptors (EGFR), the receptor complex undergoes endocytosis and is targeted tolysosomes for degradation. […] Similarly, a DQ-BSA-green degradation assay was applied to measure the general endosomal-lysosomal degradation. DQ-BSA-green is a BSA labeled with a self-quenching fluorescent dye. After DQ-BSA-green is delivered to lysosomes via endocytosis, it is hydrolyzed into single dye-labeled peptides by lysosomal proteases, thereby relieving self-quenching and the fluorescence can subsequently be monitored by flow cytometry.

[2] = test system: CNE-1 and HONE-1 cells; test: Wound healing assay; type: cell-based, human
Description: (§2) Although CQ has already been applied to treat a wide spectrum of human cancers, CQ induces ocular or renal toxicity and easily triggers drug resistance (Kimura et al., 2013). […] We first investigated the anti-tumor effects of vacuolin-1 in two nasopharyngeal carcinoma cell lines, CNE-1 and HONE-1. […] Alternatively, colony formation assay was performed to assess whether vacuolin-1 affects the ability of a single tumor cell to grow into a colony. […] We subsequently performed wound healing assay to assess whether vacuolin-1 affects the migration of tumor cells. […] Obviously, vacuolin-1 is an efficient anti-tumor agent in vitro.

[3] = test system: LCSC tumor xenograft; test: LCSC tumor xenograft in BALB/c nude mice; type: in vivo
Description: We first assessed the ability of vacuolin-1 to suppress LCSC tumor xenograft in BALB/c nude mice. Briefly, 1×10^4 lung cancer stem cells (LCSCs, 3rd generation) were suspended in Matrigel (BD Biosciences) at a ratio of 1:1, and 200 iL of cells was subcutaneously injected into the back of nude mice. The tumor volume was measured every five days after injection and calculated from the formula: length×width×depth×π/6. Mice were removed from the study when their tumor volumes exceed 2000 mm^3 (FIG. 18A). […] Also, we tested the acute toxicity of vacuolin-1 in mice.

[4] = test system: RFP-GFP-LC3 expressing HeLa cells; test: RFP-GFP-LC3 (tfLC3) fluorescence image-based autophagy assay; type: cell-based
Description: Prompted by the fact that many available autophagy chemical modulators lack either potency or specificity (Kimura et al., 2013), a fluorescence image-based assay was set up to screen small molecules affecting autophagy. HeLa cells, an autophagy competent cell line, were infected with lentiviruses carrying expression cassettes that encode RFP-GFP-LC3 (tfLC3) (Kimura et al., 2007). Thus, the LC3-II positive autophagosomes are labeled with both GFP and RFP signals shown as yellow puncta, and after fusion with lysosomes, autolysosomes are shown as red only puncta because GFP loses its fluorescence in acidic pH.
Next, a panel of small chemicals that are commercially available and have been previously shown to affect vesicle trafficking or organelle morphology were selected and screened for their effects on autophagy regulation in tfLC3 expressing HeLa cells (data not shown).

[5] = test system: HeLa cells; test: Lysosomal pH measurement (LysoSensor Green DND-189, LysoSensor Yellow/Blue DND-160); type: cell-based; conditions: 1 μM
Description: Lysosomal pH measurement—LysoSensor Green DND-189 is commonly used to measure the pH of acidic organelles, such as lysosomes, which become more fluorescent in acidic environments. Briefly, cells were loaded with 1 μMLysoSensor Green DND-189 in pre-warmed regular medium for 20 min at 37° C. Then the cells were washed twice with PBS and immediately analyzed by flow cytometry (collecting FL1 fluorescence and 10,000 cells were collected for each sample) or in a microplate reader (excitation/emission=485/530 nm).
Quantification of lysosomal pH was performed using a ratiometriclysosomal pH dye LysoSensor Yellow/Blue DND-160. The pH calibration curve was generated as described previously (Bankers-Fulbright et al., 2004). Briefly, cells were trypsinized and labeled with 2 μM Lysosensor Yellow/Blue DND-160 for 30 min at 37° C. in regular medium, and excessive dye was washed out using PBS. […] Quantitative comparisons were performed in a 96-well plate, and the fluorescence was measured with a microplate reader at 37° C. Light emitted at 440 and 535 nm in response to excitation at 340 and 380 nm were measured, respectively. The ratio of light emitted with 340 and 380 nm excitation was plotted against the pH values in IVIES buffer, and the pH calibration curve for the fluorescence probe was generated from the plot using Microsoft Excel.

[6] = test system: HeLa cells; test: DQ-BSA-green degradation assay (flow cytometry); type: cell-based; conditions: 1 μM
Description: as §1

[7] = test system: human lung cancer stem cells (hLCSCs); test: Tumor sphere formation of hLCSCs; type: cell-based; conditions: >10 μM
Description: (§3) Cancer stem cells (CSCs), a subpopulation of cells within tumors, actually drive tumor growth and recurrence. CSCs are resistant to many current cancer treatments, including chemo- and radiation therapy, thus they can survive these therapy to regenerate new tumors. […] Therefore, it is of great interest to assess the anti-tumor effects of vacuolin-1 on CSCs.

[8] = test system: CNE-1 and HONE-1 cells; test: Colony formation assay, nasopharyngeal carcinoma cells; type: cell-based, human; conditions: CNE-1 or HONE-1 cells
Description: as §2

[9] = test system: human lung cancer stem cells (hLCSCs); test: Invasion of hLCSCs; type: cell-based; conditions: >10 μM
Description: as §3

[10] = biological target: T1, V-ATPase (purified V1V0 holoenzyme) (Manduca sexta, UniProt P31400); test: In vitro V-ATPase assay; type: biochemical, M. sexta
T1 construct: Assays contained 3 μg of purified V1V0 holoenzyme; from tissue; host or cells: Fifth instar larvae of M. sexta; The midgut goblet cell apical membrane is named only in the title of the cited Wieczorek et al. 1990, not in the method text
T1 sequence (P31400 whole entry): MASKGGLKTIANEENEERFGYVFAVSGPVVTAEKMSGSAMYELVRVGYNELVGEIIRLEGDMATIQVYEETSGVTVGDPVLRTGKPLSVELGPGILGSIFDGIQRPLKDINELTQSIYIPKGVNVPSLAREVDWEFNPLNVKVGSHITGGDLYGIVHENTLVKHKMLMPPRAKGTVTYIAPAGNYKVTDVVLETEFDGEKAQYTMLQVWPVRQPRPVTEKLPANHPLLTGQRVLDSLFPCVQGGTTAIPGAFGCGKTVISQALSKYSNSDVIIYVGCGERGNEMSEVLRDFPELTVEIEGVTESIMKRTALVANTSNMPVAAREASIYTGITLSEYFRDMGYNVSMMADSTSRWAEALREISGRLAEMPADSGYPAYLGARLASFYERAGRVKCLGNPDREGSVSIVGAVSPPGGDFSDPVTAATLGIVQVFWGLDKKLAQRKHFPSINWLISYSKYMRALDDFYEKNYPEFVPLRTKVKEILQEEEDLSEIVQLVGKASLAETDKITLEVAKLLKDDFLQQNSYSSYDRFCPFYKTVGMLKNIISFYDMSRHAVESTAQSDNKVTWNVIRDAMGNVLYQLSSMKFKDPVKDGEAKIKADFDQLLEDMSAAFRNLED
Description: V-ATPase assay—Fifth instar larvae of M. sexta (Lepidoptera, Sphingidae), weighing 6-8 g, were reared under long day conditions (16 h of light) at 27° C. using the gypsy moth diet (MP Biomedicals, Germany). The purification of the V1VO holoenzyme was performed as previously described (Huss et al., 2002). Activity assays were performed in triplicate in a final volume of 160 μL and at a pH of 8.1. Assays contained 3 μg of purified V1V0 holoenzyme, 50 mM Tris-Mops, 3 mM 2-mercaptoethanol, 1 mM MgCl2, 20 mM KCl, 0.003% C12E10, 20 mM NaCl, and 3 mM Tris-HCl. After 10 min of preincubation at 30° C., with or without inhibitors, 1 mM Tris-ATP was added and after an incubation for 2 min at 30° C. the reaction was stopped by freezing the samples in liquid nitrogen. Inorganic phosphate was determined as previously described (Wieczorek et al., 1990).

[11] = nude mice, intratumoral injection 5 mg/kg twice a week

SMILES: Ic1cccc(/C=N/Nc2nc(N3CCOCC3)nc(N(c3ccccc3)c3ccccc3)n2)c1 [vacuolin-1]
- EGF-triggered EGFR degradation [1]: inhibited EGF-triggered EGFR degradation
- migration of tumor cells (wound healing) [2]: efficiently suppressed the migration
- autophagy in tumors ([3]; LCSC xenograft, vacuolin-1 treatment): markedly inhibited autophagy
- tumor growth of LCSC xenograft [3, 11]: markedly inhibited tumor growth
- weight gain of xenograft mice [3, 11]: little effects
- LC3 puncta (yellow = autophagosomes, red only = autolysosomes) [4]: potently induced LC3 yellow puncta, not red puncta
- lysosomal pH, qualitative (LysoSensor Green DND-189) [5]: raised lysosomal pH
- lysosomal pH, quantitative ratiometric (LysoSensor Yellow/Blue DND-160) ([5]; control cells pH 4.7): 5.2 pH
- degradation of DQ-BSA-green by lysosomes [6]: markedly inhibited the degradation of BSA
- tumor sphere formation of hLCSCs [7]: almost completely inhibited
- size and number of colonies generated from single cell [8]: dramatically reduced the size and number of colonies
- invasion of hLCSCs [9]: almost completely inhibited
- V-ATPase activity in vitro [10]: little effects

Source: patent publication US9717737B2, “Vacuolin-1 as an inhibitor of autophagy and endosomal trafficking and the use thereof for inhibiting tumor progression” (The University of Hong Kong, priority 2014, dated 2017)
